# Laboratory results reported in patent US20120225921A1, “METHOD OF CONTROLLING PHYTOPATHOGENIC DISEASES ON TURFGRASS” (SYNGENTA CROP PROTECTION, LLC, priority 2006, published 2012).
# What was measured:
# Format in all cases: in vivo
# Sclerotinia homoeocarpa [1] = assay: Control of Sclerotinia homoeocarpa on Kentucky Bluegrass (Example B-2, plot spray treatment); conditions: 500 g ai/ha, sprayed three times every 14 days, assessed 19 days after last treatment, vs untreated (58% diseased)
# Description: Plots were inoculated with Kentucky Bluegrass (Poa pratensis L.) seeds infested with Sclerotinia homoeocarpa, and a quantity of formulations A and B which corresponds to a dose shown in the table below and expressed in g/ha was sprayed on the plots. This treatment was repeated three times at an interval of 1 treatment every 14 days. 19 days after the last treatment, the disease incidence and severity was assessed visually. […] Disease control is shown as % disease control compared to untreated Kentucky Bluegrass.
# Sclerotinia homoeocarpa [2] = assay: Control of Sclerotinia homoeocarpa on Creeping Bentgrass (Example B-1, plot spray treatment); conditions: 500 g ai/ha, sprayed three times every 14 days, assessed 19 days after last treatment, vs untreated (60% diseased)
# Description: The following EC formulations were prepared: […]
# Plots were inoculated with Creeping Bentgrass (Agrostis palustris Huds.) seeds infested with Sclerotinia homoeocarpa, and a quantity of formulations A and B which corresponds to a dose shown in the table below and expressed in g/ha was sprayed on the plots. This treatment was repeated three times at an interval of 1 treatment every 14 days. 19 days after the last treatment, the disease incidence and severity was assessed visually. […] Disease control is shown as % disease control compared to untreated Creeping Bentgrass.
# [3] = system: Colletotrichum graminicola; assay: Control of Colletotrichum graminicola on Annual Bluegrass/Creeping Bentgrass (Example B-3); conditions: 500 g ai/ha; application interval 21 days, three sprays; assessed 10 days after final application; Poa/Bentgrass, natural infection; vs untreated (44% diseased)
# Description: The following EC formulation was prepared: […]
# Plots of a mixture of Annual Bluegrass (Poa annua) and Creeping Bentgrass (Agrostis stolifera) naturally infected with anthracnose (Colletotrichum graminicola) were treated with quantities of formulation C which correspond to a dose shown in the table below and expressed in g ai/ha. The dose corresponding to 250 g ai/ha was sprayed four times with an interval of 14 days. The dose corresponding to 500 g ai/ha was sprayed three times with an interval of 21 days. At 23 days after the final application with the 250 g ai/ha dose, and 10 days after the final application with the 500 g ai/ha dose, disease severity was assessed visually. […] Disease control is shown as % disease control compared to untreated plots.
# Rhizoctonia solani = assay: Control of Rhizoctonia solani on Colonial Bentgrass (Example B-4); conditions: 302 g ai/ha, application interval 14 days, three sprays, assessed 21 days after final application, natural infection, vs untreated (80% diseased)
# Description: Plots of Colonial Bentgrass (Agrostis tenius Sibth.) naturally infected with brown patch (Rhizoctonia solani) were treated with quantities of formulation C which correspond to a dose shown in the table below and expressed in g ai/ha. The dose corresponding to 302 g ai/ha was sprayed three times with an interval of 14 days. The dose corresponding to 604 g ai/ha was sprayed two times with an interval of 28 days. At 21 days after the final application of both dose rates, disease severity was assessed visually. […] Disease control is shown as % disease control compared to untreated plots.
Structure (SMILES),% Disease Control (Sclerotinia homoeocarpa [1]),% Disease Control (Sclerotinia homoeocarpa [2]),% Disease Control [3],% Disease Control (Rhizoctonia solani)
"CC(C)CC(C)c1sccc1NC(=O)c1cn(C)nc1C(F)(F)F (stereo not drawn) [Penthiopyrad, N-[2-(1,3-dimethylbutyl)-3-thienyl]-1-methyl-3-(trifluoromethyl)-1H-pyrazole-4-carboxamide, reference compound]",21%,57%,–,–
CC(C)C1C2CCC1c1c(NC(=O)c3cn(C)nc3C(F)F)cccc12 (racemic) [Compound IAc],88%,93%,92%,97%
